Experimental data as given in patent US10725042B2, “Methods of diagnosing and treating cancer” (Case Western Reserve University, priority 2012, dated 2020).

Assays:
DLD1/UDG−/− cells = assay: Colony survival (clonogenic) assay, UDG−/− cells; type: cell-based, human
Method: Recombinant virus was grown in 293T cells and subsequently used to infect DLD1 cells. Selection of positively transfected clones was achieved by the addition of G418 to the culture medium. A second infection of transfected clones with Cre-recombinase adenovirus caused excision of the neomycin resistance cassette. Dflag cell line was produced by transfection of UDG expression vector in UDG^−/− cells to restore UDG activity.
(§1) Tumor cells (500-2000/dish) were plated and treated with pemetrexed (0-400 nM), 5-fluorouracil (0-20 μM), temozolomide (0-1500 μM), or cisplatin (0-40 μM). After 7 days, surviving colonies were stained with methylene blue for 30 min at room temperature and the colonies containing more than 50 cells were counted to generate survival curves.

H1975 shUNG cells = assay: PCNA dissociation by bi-parametric flow cytometry, H1975 shUNG cells; type: cell-based, human; conditions: 25 nM pemetrexed
Method: Propidium iodine (PI) staining of methanol fixed cells was for cell cycle determinations. Where indicated, FITC labeled PCNA antibody (PCNA-FITC, Abcam) was added for PCNA detection. Uni-parameter (PI-only) and dual-parameter (PI+PCNA-FITC) analysis was performed on a Coulter flow cytometer (EPICS-XL-MCL). Cell cycle histograms (PI) and PCNA dot plots (PCNA-FITC) were de-convoluted from ≥20,000 events using FlowJo software.
Prolonged S-phase arrest is known to result in DNA DSB formation due to the collapse of stalled replication forks. We evaluated the stability of the DNA replication fork in pemetrexed treated lung cancer cells with native and reduced levels of UNG protein. Nucleotide incorporation experiments using CldU and IdU indicate decreased postpemetrexed treatment nucleotide incorporation (data not shown). […] Using bi-parametric flow cytometry we measured the dissociation of the replication fork processivity factor, PCNA at the single cell level in H1975 cells expressing UNG directed shRNA. Similar assays have been utilized to detect replication fork disassembly following etoposide and hydroxyurea exposure. PCNA dissociation was determined by the percentage of cells in S phase having low PCNA (red box, FIG. 11d). […] As a complimentary experiment, we examined the expression of chromatin-bound PCNA after pemetrexed treatment by western blot of chromatin cellular extracts.

H1299/PR-1 cells = assay: Colony survival assay, H1299/PR-1 pemetrexed-resistant subline; type: cell-based, human; conditions: PR-1 vs H1299 parental, colony survival
Method: (§2) For cells in suspension, colony survival was determined by crystal violet staining of colonies formed after 10-day exposure of 5×10^3 cells to pemetrexed in soft agar. For adherent cells, colony survival was determined by methylene blue staining of colonies formed after 10-day exposure of 100 cells to pemetrexed in 6-well culture dishes. Only colonies containing ≥50 cells were counted. Data points represent percent of colonies relative to untreated control averaged over 3 experiments.
H1299 cells were exposed to step-wise increasing concentrations of pemetrexed over a period of 4 months. UNG expression was monitored in the bulk population at 2, 8, 12 and 16 weeks prior to administration of the induction dosage and at 24 weeks in a population of bulk chronically exposed cells that had been without pemetrexed for 8 weeks. H1299 cells capable of growth in 50 nM pemetrexed selection pressure were subcloned by limiting dilution in 96 well plates. Independent sublines were designated H1299/PR-1 and H1299/PR-2.

H1975 67 shUNG cells = assay: Colony survival assay, H1975 67 shUNG cells; type: cell-based; conditions: Homo sapiens, NCI-H1975, read-out: pemetrexed IC50
Method: as §2
(§3) UNG directed shRNA and siRNA plasmids were purchased from Origene. Transfection was carried out according to manufacturer specifications. Stably transfected clones (shRNA) were selected with puromycin with subsequent expansion of a well-isolated colony of cells.

H1975 cells = assay: Colony survival assay, H1975 parental cells; type: cell-based; conditions: Homo sapiens, NCI-H1975, read-out: pemetrexed IC50
Method: as §2

A549 cells = assay: Clonogenic survival assay, A549 cells (Example 1); type: cell-based; conditions: Homo sapiens, read-out: IC50 values for pemetrexed
Method: as §1

[1] = system: uracil in DNA of UDG+/+ cells; assay: Uracil in DNA by HPLC/MS/MS, UDG+/+ cells; type: cell-based, human; conditions: pemetrexed 10 μM, 6-72 hr
Method: (§4) UDG^−/− and UDG^+/+ cells were exposed to pemetrexed (10 μM) or 5-fluorouracil (10 μM) for 6, 24, 48 and 72 hrs. At indicated time points, cells were harvested and genomic DNA was extracted by phenol/chloroform. Forty μg of DNA were incubated with 10 U of purified UDG (New England Biolabs) in 60 μL of reaction buffer at 37° C. for 2 hrs. The reaction products were dried at 35° C. in a Turbovap under a stream of nitrogen and reconstituted in 150 μL 90% acetonitrile. The analyte was retained by an Atlantis Hilis Silica analytical column (2.1×100 mm, 3.5 μM) and eluted isocratically by a mixture of 90% acetonitrile and 10% 2.0 mM ammonium formate at a flow rate of 0.2 ml/min. The detection was done by an API 3200 MS/MS mass spectrometer.

A549 parental cells = assay: Colony survival assay, A549 parental cells (Example 2); type: cell-based; conditions: Homo sapiens, read-out: pemetrexed IC50
Method: as §2

[2] = system: uracil in DNA of UDG−/− cells; assay: Uracil in DNA by HPLC/MS/MS, UDG−/− cells; type: cell-based, human
Method: as §4

DLD1/UDG+/+ cells = assay: Cell cycle analysis, UDG+/+ cells; type: cell-based, human; conditions: pemetrexed 25 nM
Method: For cell cycle analysis, 10^6 cells (DLD1/UDG^+/+ and DLD1/UDG^−/−) were plated in 100-mm tissue culture dishes and exposed to pemetrexed (25 nM). After 6, 24 and 72 h of culture, cells were fixed with 80% methanol and washed with ice-cold 1% BSA/PBS. DNA was stained with 20 μg/mL propidium iodide (Sigma-Aldrich) and 2.5 μg/mL of DNase-free RNase A (Roche). The DNA fluorescence of propidium iodide-stained cells was measured with an Elite ESP flow cytometer/cell sorter (Coulter, Miami, Fla.).

H1975 wt tumors = assay: H1975 wt xenografts in NOD-SCID mice; type: in vivo
Method: Tumor cells in early passage (5×10^6) were injected into bilateral flanks of female NODSCID mice (6 weeks old). When tumor volumes reached 100 mm3, mice were divided into control (n=4) and treatment (n=6) groups. Mice bearing tumors were treated with pemetrexed (150 mg/kg) or 100 μl sterile PBS (control) by daily intraperitoneal injection (IP) for 5 consecutive days. Tumor measurements were taken every 2 days and response was quantified by tumor volume.

A549 siUNG cells = assay: Colony survival assay, A549 siUNG cells; type: cell-based, human
Method: as §2, §3

Nc1nc2[nH]cc(CCc3ccc(C(=O)N[C@@H](CCC(=O)O)C(=O)O)cc3)c2c(=O)[nH]1 [pemetrexed]
IC50 (DLD1/UDG−/− cells; Homo sapiens, DLD-1, UDG−/− cells, interpolated from dose-response survival curves, read-out: IC50 value for pemetrexed): 0.02 µM | sensitivity of UDG−/− cells relative to UDG+/+ cells (DLD1/UDG−/− cells; UDG−/− vs UDG+/+): 10 times | cells in S phase having low PCNA (H1975 shUNG cells; 6 hours): 3.88±0.93% | cells in S phase having low PCNA (H1975 shUNG cells; 24 hours): 7.81±1.19% | relative resistance to pemetrexed compared to parental cells (H1299/PR-1 cells): 25 fold | IC50 (H1975 67 shUNG cells): 0.146 µM | IC50 (H1975 cells): 0.777 µM | IC50 (A549 cells): 1.2 µM | uracil detected in DNA [1]: very low | IC50 (A549 parental cells): 0.416 µM | uracil detected in DNA ([2]; UDG−/− cells, drug 10 μM, 6-72 hr): significant amount of uracil | uracil accumulation compared to UNG+/+ controls ([2]; UNG−/− human cancer cells exposed to pemetrexed): up to 40 fold | cells transiently arrested in S-phase (DLD1/UDG+/+ cells; 24 hr (untreated 17%)): 21% | cells in the subG1 compartment (DLD1/UDG+/+ cells; 72 hr): 6% | tumors smaller than untreated controls (H1975 wt tumors; H1975 wild type tumors, day 20, pemetrexed 150 mg/kg IP x5): 37.8% | tumor quadrupling time (H1975 wt tumors; H1975 wt tumors, pemetrexed 150 mg/kg IP, 5 daily injections): 9.68 ± 0.31 days | sensitivity of A549 siRNA cells compared to parental cells (A549 siUNG cells; A549 siUNG vs parental): 7 fold | IC50 (A549 siUNG cells; Homo sapiens, A549 siUNG, colony survival, read-out: pemetrexed IC50): 0.0605 µM
